According to patent US12035718B2, “Biofilm penetrating compositions and methods” (Nevada Naturals Inc., priority 2017, dated 2024):
Counter-ions that a name gives are not always drawn.

Tests used:
P. aeruginosa = details: literature reports (Musk et al.; Kim et al.); cited from earlier work
[1] = rats; cited from earlier work
Candida albicans = assay: MIC of LAE/SL mixtures (FIG. 7, FIG. 8A); format: cell-based; details: Example 8, FIG. 8A; solubilized in DW
Procedure: MIC values of various mixtures of N^α-lauroyl arginine ethyl ester HCl salt and sucrose monolaurate in preventing the growth of Candida alibicans were determined. […] In comparing ratios of wt % of SL to wt % of LAE, ratios from 2:1 to 1:2 show enhancement compared to 100 wt % LAE.

S. aureus = details: Example 8, FIG. 8A; solubilized in DW
Procedure: In Example 8, different pathogens were tested for MIC (Minimum Inhibitory Concentration) with formulations that comprise combinations of LAE and SL. […] In FIGS. 8A and 8B the active ingredients LAE and SL were solubilized in DW as indicated and were tested. FIG. 8A reports MIC combination of LAE and SL tested on Candida albicans fungi in duplicate and for gram positive S. aureus. FIG. 8B reports MIC on combinations of LAE/SL exposed to S. epidermidis.

S. epidermidis = assay: MIC of LAE/SL mixtures (FIG. 8B); format: cell-based; details: Example 8, FIG. 8B; solubilized in DW
Procedure: In Example 8, different pathogens were tested for MIC (Minimum Inhibitory Concentration) with formulations that comprise combinations of LAE and SL. […] In FIGS. 8A and 8B the active ingredients LAE and SL were solubilized in DW as indicated and were tested. […] FIG. 8B reports MIC on combinations of LAE/SL exposed to S. epidermidis.

[2] = test system: Streptococcus pyogenes, Streptococcus mitis, Staphylococcus epidermidis, and E. coli; details: 10 wt % of hexylene glycol, in vitro; cited from earlier work

Ferric ammonium citrate [reference compound]
biofilm formation, result in words (P. aeruginosa): inhibited biofilm formation in a dose-dependent manner

CCOC(=O)CC(O)(CC(=O)OCC)C(=O)OCC [triethyl citrate]
oral LD50 [1]: 7.0 cc/kg

sucrose laurate [SL]
MIC, result in words (Candida albicans): much higher MIC values than LAE or combinations of LAE/SL | MIC, result in words (S. aureus): much higher MIC values than LAE or combinations of LAE/SL | MIC, result in words (S. epidermidis): much higher MIC values than LAE or combinations of LAE/SL

CCCCCCCCCCCC(=O)N[C@@H](CCCNC(=N)N)C(=O)OCC [LAE, N^α-lauroyl-L-arginine-ethyl ester]
biofilm formation, result in words (P. aeruginosa): inhibited biofilm formation

CC(O)CC(C)(C)O (stereo not shown) [hexylene glycol]
killing power, comparison [2]: equivalent to 30 wt % of 1,3 butylene glycol or propylene glycol
